`CN(C)[Si](C)(C)C` [(N,N-Dimethylamino)trimethylsilane] had a flash point of -18.6 °C.

`CC[Si](Cl)(Cl)Cl` [Ethyltrichlorosilane] yielded a flash point of -10.00 °C.

The source holds these as a separate data set.
`C[Si](Cl)(Cl)CCCCl` [3-Chloropropylmethyldichlorosilane] yielded a flash point of 86 °C.

On to `CN(C)[Si](C)(C)C` [(N,N-Dimethylamino)trimethylsilane], for which the flash point is -19 °C.

Compound `CC[Si](Cl)(Cl)Cl` [Ethyltrichlorosilane] yielded a flash point of 22 °C.

Turning to `C[SiH](Cl)Cl` [Methyldichlorosilane], the flash point is -32 °C.

Turning to `Cl[SiH](Cl)c1ccccc1` [Phenyldichlorosilane], the flash point amounted to 60 °C.

The compound `C[SiH](C)c1ccccc1` [Phenyldimethylsilane] returned a flash point of 38 °C.

As for `C=C[Si]1(C)[Si](C)(C=C)[Si](C)(C=C)[Si]1(C)C=C` (stereo not drawn) [Tetramethyltetravinylcyclotetrasilane], the flash point was 112 °C.

This is another data set of the same source.
With `C[O][Ge]([O]C)([O]C)[O]C` [TETRAMETHOXYGERMANE], the flash point was found to be 34.00 °C.

For the compound `[CH3][Ge]([CH3])([CH3])[Br]` [TRIMETHYLBROMOGERMANE], the flash point amounted to 37.00 °C.

In turn, `C=[CH][Ge]([CH2]C)([CH2]C)[CH2]C` [VINYLTRIETHYLGERMANE] showed a flash point of 32.00 °C.

In turn, `C[C](C)(C)[Ge]([CH3])([CH3])[Cl]` [t-BUTYLDIMETHYLCHLOROGERMANE] gave a flash point of 34.00 °C.
